The results in this text go back to patent publication US6444706B2, “Guanidine derivatives, processes for preparing them and their use as pharmaceutical compositions” (priority 1996, dated 2002).

The test system of one assay is herpes virus. The assay is described as follows: Virus replication in infected cell cultures, plaque assay of supernatant. The assay is classed as cell-based. The settings on record: Fibroblast, herpes-infected monkey kidney cells or human fibroblasts, 24 hours, read-out: IC50 (concentration at which virus replication is inhibited by 50%). The method, then: The virostatic properties were determined by in vitro tests. The following virus strains were used:
Cell cultures (monkey kidney cells or human fibroblasts) are infected with herpes and a series of cultures are exposed to medium containing various concentrations of the test substance. After 24 hours the concentration of the virus descendants in the cell culture supernatant is determined by plaque assays.

For assay [1], the system named is RAW cells (mouse macrophage line). The assay can be described thus: Inhibition of NO-synthase induction in macrophages (nitrite in culture medium). The format is cell-based. Conditions: 10 ng/ml LPS, 16 hours, without C11AG 0.122. The method, then:
RAW cells (mouse macrophage line, origin: American Type Culture Collection) were treated with 10 ng/ml of endotoxin from E. coli (LPS) in the presence of different concentrations of C11AG. After 16 hours the nitrite content in the culture medium was measured using the method described [K. Tschaikowsky, M. Meisner, F. Schonhuber and E. Rugheimer, Br. J. Pharmacol. 113 (3): 664-8 (1994)].
The inhibition of NO-synthase induction is graphically shown in FIG. 3; the NO2 concentration [OD measured at 540 nm] is plotted against the C11AG concentration [μg/ml] for 10 ng/ml of LPS.

The subject of assay [2] is collagen-induced arthritis. The assay can be described thus: Inhibition of collagen-induced arthritis in the mouse. Conditions: for Total Symptoms: day 7 after booster injection, 10 animals. The assay is classed as in vivo, DBA/I mice. The method, then: An autoimmune reaction against cartilagenous tissue was produced by injecting collagen into DBA/I mice as described (Holmdahl, R. et al., Immunology, 65, 305-310, 1988). Groups of 10 animals were used as control or were given 50 mg/kg or 100 mg/kg of C11AG per day by oral route. The drug was administered in the food (Altromin, powdered food) and the dosage was calculated from the daily food intake. The symptoms were evaluated daily for each individual paw from 0.5-3 as described [R. Holmdahl, et al., Immunology, 65, 305-310, (1988)].
20 days after the booster injection the animals were killed and the joints were examined by histopathology resulting in the following picture: […]

The test system of assay [3] is endotoxin from E. coli (endotoxic shock). The assay can be described thus: Protection from endotoxic shock by C11AG in mice. The format is in vivo, mice (strain NMRI/Nu). The settings on record: 50 mg/kg subcutaneously 30 minutes before 0.2 mg endotoxin i.p.; nine animals; all 10 controls died within 24 hours. The protocol: Mice (strain NMRI/Nu, 8 weeks old, female) were each given 0.2 mg of endotoxin from E. coli (Sigma, Munich) by intraperitoneal route. The 10 control animals, who had been given 0.2 ml of 5% glucose subcutaneously, died within 24 hours. Nine animals were injected subcutaneously with 50 mg/kg of C11AG 30 minutes before the endotoxin treatment. Of this group, only 2 animals died.

Assay [4] has as its target T1, neutral SMase (membrane fraction isolated from mice brains) (Mus musculus, UniProt Q9JJY3).
T1 construct: membrane fraction isolated from mice brains, 10 μg of protein/mixture [according to S. Gatt, Biochem. Biophys; Res. Commun; 68, 235-241 (1976)]
T1 sequence (Q9JJY3 1-655): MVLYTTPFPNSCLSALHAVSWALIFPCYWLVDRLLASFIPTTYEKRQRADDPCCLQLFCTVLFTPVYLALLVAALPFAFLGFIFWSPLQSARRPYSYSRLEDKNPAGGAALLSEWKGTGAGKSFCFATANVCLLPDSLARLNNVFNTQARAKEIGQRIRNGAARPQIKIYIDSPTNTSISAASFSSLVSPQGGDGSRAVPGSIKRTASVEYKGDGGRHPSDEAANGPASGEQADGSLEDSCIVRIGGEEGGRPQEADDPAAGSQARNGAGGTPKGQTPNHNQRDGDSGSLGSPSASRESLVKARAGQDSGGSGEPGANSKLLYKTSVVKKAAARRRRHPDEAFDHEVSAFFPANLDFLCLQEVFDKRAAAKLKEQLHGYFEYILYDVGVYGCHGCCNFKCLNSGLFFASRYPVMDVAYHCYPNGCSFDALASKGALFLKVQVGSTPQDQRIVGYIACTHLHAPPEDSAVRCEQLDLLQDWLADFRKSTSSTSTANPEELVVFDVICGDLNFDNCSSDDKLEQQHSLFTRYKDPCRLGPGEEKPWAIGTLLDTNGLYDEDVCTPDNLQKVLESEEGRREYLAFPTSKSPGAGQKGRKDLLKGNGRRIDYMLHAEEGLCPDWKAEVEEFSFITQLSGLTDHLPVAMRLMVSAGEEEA
The assay is described as follows: Inhibition of neutral SMase (14C sphingomyelin hydrolysis). The format is biochemical. Conditions: 2 h, pH 7.5, read-out: nSMase activity. The protocol: Then the samples were extracted with 5 times the volume of chloroform/methanol (1:1) and the content of radioactive phosphorylcholine in the aqueous phase was determined. The release of phosphorylcholine in the untreated mixtures corresponds to 100% enzyme activity.
The release of phosphorylcholine in the untreated batches corresponds to 100%.

Assay [5] has as its system acidic SMase (microsome fraction from macrophage). The assay can be described thus: Inhibition of acidic SMase (14C sphingomyelin hydrolysis). The assay is classed as biochemical. Conditions: pH 5.6, untreated = 100%. The method, then: ^14C sphingomyelin (10 μg/ml) were incubated with neutral SMase (membrane fraction isolated from mouse brains, 10 μg protein/mixture, according to Gatt, S. Biochem. Biophys. Res. Commun. 68, 235-241, 1976) or with acidic SMase (microsome fraction from macrophage 5 μg of protein/mixture isolated according to Gatt, S. Biochem. Biophys. Res. Commun. 68, 235-241, 1976) in the presence of various concentrations of the test substances, for 2 hours at 37° C. in 20 mM Tris, 1 mM MgCl2, pH 7.5 (neutral SMase) or in 50 mM sodium acetate, 1 mM MgCl2, pH 5.6 (acid SMase). Then the samples were extracted with 5 times the volume of chloroform/methanol (1:1) and the content of radioactive phosphorylcholine in the aqueous phase was determined. The release of phosphorylcholine in the untreated mixtures corresponds to 100% enzyme activity.
^14C-sphingomyelin (10 μg/ml) was incubated with neutral SMase (membrane fraction from mouse brain, 10 μg of protein/batch, isolated according to Gatt, S. Biochem. Biophys. Res. Commun. 68, 235-241, 1976) or with acid SMase (microsome fraction from macrophages 5 μg of protein per batch [isolated according to S. Gatt, Biochem. Biophys. Res. Commun. 68, 235-241, (1976)] in the presence of various concentrations of the test substances for 2 hours at 37° C. in 20 mM Tris, 1 mM MgCl2, pH 7.5 (neutral SMase) or in 50 mM sodium acetate, 1 mM MgCl2, pH 5.6 (acidic SMase). Then the samples were extracted with 5 times the volume of chloroform/methanol (1:1) and the content of radioactive phosphorylcholine in the aqueous phase was determined. The release of phosphorylcholine in the untreated batches corresponds to 100%.

Assay [6] deals with endotoxin from E. coli (lethal endotoxic shock). The assay can be described thus: Prevention of lethal endotoxic shock in the mouse by H2C11AG. The format is in vivo, mice of the Balb C strain. The settings on record: 100 mg/kg by oesophageal tube 2 hours before 0.7 mg endotoxin i.p., 10 animals, observed 12 days. The method, then:
10 mice of the Balb C strain (about 8 weeks old) were given 0.7 mg of endotoxin from E. coli (in 0.2 ml of isotonic saline solution) by intraperitoneal injection. 10 animals were given 100 mg/kg of H2C11AG (dissolved in twice distilled water) by oesphageal tube 2 hours before the LPS treatment. The control animals were given water.

For the compound `CCCCCCCC=NNC(=N)N` [1-(octylidene-amino)guanidine], in the assay with herpes virus, the IC50 turned out to be 49.7 µM.

With `N=C(N)NN=Cc1c2ccccc2cc2ccccc12` [1-(Anthracen-9-ylmethylene-amino)guanidine], the IC50 in the assay on herpes virus stood at 1.5 µM.

As to `CCCCCCCCCCCC=NNC(=N)N` [1-(dodecylideneamino)guanidine], in the assay with herpes virus, the IC50 came to 3.2 µM.

Take `CCCCCCCCCCC=NNC(=N)N` [C11AG, 1-(undecylideneamino)guanidine]: the “OD 540 nm (nitrite content in culture medium)” value in assay [1] (0.5 μg/ml C11AG) was found to be 0.091; in assay [1] (1 μg/ml C11AG), 0.075; in assay [1] (2 μg/ml C11AG), 0.054; in assay [1] (3 μg/ml C11AG), 0.05; in assay [1] (4 μg/ml C11AG), 0.038. For the same compound, the “Total Symptoms” value in assay [2] (50 mg/kg per day oral in food) is 4.5; in assay [2] (100 mg/kg per day oral in food) it was 1. Further, the “histopathology of joints (inflammatory processes)” value in assay [2] (50 and 100 mg/kg, 20 days after booster injection) is reported as “no such inflammatory processes could be detected”. In addition, the animals died in assay [3] is 2. Also, in assay [4], the activity at 1 µg/mL amounted to 61%. The activity at 10 µg/mL in assay [4] was 18%. Further, the activity at 100 µg/mL in assay [4] amounted to 0%. In addition, the aSMase activity was found to be 101% in assay [5] (1 μg/ml), 102% in assay [5] (10 μg/ml) and 31% in assay [5] (100 μg/ml). For the same compound, the IC50 in the assay on herpes virus was found to be 6.8 µM.

`CCCCCCCCC=NNC(=N)N` [1-(nonylidene-amino)guanidine]: the IC50 in the assay with herpes virus was determined as 29 µM.

`CCCCCCCCCC=NNC(=N)N` [1-(decylidene-amino)guanidine]: the IC50 with herpes virus was 28.9 µM.

With `N=C(N)NN=C1C=Cc2cccc3cccc1c23` [1-(phenalen-1-ylidene-amino)guanidine, 1-(Phenalen-1-ylidene-amino)guanidine], the IC50 in the assay on herpes virus was determined as 45.4 µM.

On to `N=C(N)NN=Cc1c[nH]c2ccccc12` [1-(indol-3-ylmethylene-amino)guanidine, 1-(Indol-3-ylmethylene-amino)guanidine], for which the IC50 in the assay on herpes virus was found to be 19.8 µM.

For the compound `CCCCCCCCCCCNNC(=N)N` [H2C11AG, 1-(undecylamino) guanidine], in assay [4], the activity at 1 µg/mL came out at 73%, the activity at 10 µg/mL came out at 22% and the activity at 100 µg/mL amounted to 2%. The aSMase activity in assay [5] (1 μg/ml) was 100%. The aSMase activity in assay [5] (10 μg/ml) came to 97%. The aSMase activity in assay [5] (100 μg/ml) was 32%. For the same compound, the survivors in assay [6] (control 2 survivors) worked out at 9. In addition, the “survivors (%)” value in assay [6] (control 20%) is reported as 90%.
